# Values of other authors as cited in patent US20230310544A1, “ANTI-RNA VIRAL PHARMACEUTICAL COMBINATION THERAPY WITH APROTININ + anti-RNA DRUG” (ASAVI LLC, priority 2022, published 2023).
# Experiments:
# SARS-CoV-2 = conditions: human, in vivo
# COVID-19 = COVID-19 patients
compound,measurement,setting,value
"NC(=O)c1nc(F)c[nH]c1=O [FVP, favipiravir]","Median time to elimination of SARS-CoV-2 confirmed by RT-PCR, days (IQR)",SARS-CoV-2,4.5 days
same,"Median time to improvement in clinical status by 2 points on the WHO-OSCI, days (IQR)",SARS-CoV-2,14.0 days
same,"Median time to normalization of body temperature (<37° C.), days (IQR)",SARS-CoV-2,2.0 days
same,time to clinical improvement,COVID-19,≤ 14 days
same,time to viral clearance,COVID-19,≤ 7 days
